The text below walks through data of patent publication US20190316085A1, “Methods Of T-Lymphocyte Expansion” (Cambridge Enterprise Limited, priority 2015, published 2019).

Assay [1] has as its system CD8^+ T-lymphocytes. The assay can be described thus: qRT-PCR of differentiation, memory and pluripotency associated genes. In kind it is cell-based, mouse. The conditions noted are these: 0.5 mM, 1 day or 7 days, with IL2. The protocol:
FIGS. 8E, 8F and 8G show expression of II2(8E), Ifng (8F), and Eomes (8G) mRNA in CD8^+ T-lymphocytes activated for 48 h with αCD3+αCD28 antibodies and then expanded for a further 2 days in the presence of IL-2. Cells were then treated for either 24 h or 7 days with or without 0.5 mM S-2HG-octyl ester or R-2HG-octyl ester. n≥4 mice per group.
Activated CD8^+ T-lymphocytes were treated with 0.5 mM of either S-2HG-octyl ester or R-2HG-octyl ester for 1 day or 7 days in the presence of IL2. The induction seen with R-2HG-octyl ester is weaker than with S-2HG-octyl ester. Each dot represents an individual donor mouse, n=4 mice. error bars denote the s.d.
RNA was isolated using the RNeasy kit (Qiagen). 1 μg of RNA was used for cDNA synthesis with the First-Strand Synthesis kit (Invitrogen). All samples were run in technical triplicates using a StepOnePlus system (Applied Biosystems) with SYBR green.
In general terms: In qPCR the cycle at which signal appears reflects the starting amount.

For assay [2], the system named is CD8^+ T-lymphocytes. The assay can be described thus: Flow cytometric characterisation of phenotypic markers. It is filed as cell-based, mouse. Conditions: 7 days. An excerpt:
Gated on live CD8^+ cells. Each dot represents an individual mouse.
Associated statistics are shown and each pair of dots represents an individual mouse. Gated on live, CD8^+GFP^+ cells.
Cells were stained and acquired on a Fortessa (BD Biosciences). The following fluorophores and fluorophore-conjugated antibodies were used: anti-CD62L (Biolegend, MEL-14), anti-CD44 (Biolegend, IM7), anti-CD8a (Biolegend, 53-6.7), anti-CD45.1 (Biolegend, A20), anti-CD45.2 (Biolegend, 104), anti-CD127 (Biolegend, A7R34), anti-KLRG1 (Biolegend, 2F1/KLRG1), anti-CD19 (Biolegend, 6D5), anti-Bcl-2 (Biolegend, BCL/10C4), Eomes (eBioscience, Danlimag), PD-1 (Biolegend, 29F.1A12), […], H-2Kb/SIINFEKL Pentamer-PE (Proimmune, F093-2A), CFSE (Life Technologies), LIVE/DEAD Violet (Life Technologies), PI-AnnexinV (Biolegend, 640928), anti-Bcl-xl-PE (Cell Signalling Technologies, 54H6). For staining of nuclear-located marker Eomes, the Transcription Factor Staining Buffer Set (eBioscience) was used, according to the manufacturer's instructions. For staining of intracellular cytokines, OT-I cells were re-stimulated with SIINFEKL peptide for 4 h with GolgiStop solution (BD). For ^1H-NMR experiments, CD8^+ T-lymphocytes were sorted from total splenocytes by immunostaining with anti-mouse CD8-AF647 (Biolegend) on a MoFlo (Beckman Coulter). Cells were then activated and cultured as described above. For staining of human T cells, CD8^+ T cells were incubated at 37 C for 30 minutes in the presence of anti-CCR7 antibody (eBioscience 12-1979-41), followed by staining with anti-CD45RO antibody (Biolegend, UCHL1).
(In general: In flow cytometry, cells or beads pass a laser one at a time.)

Assay [3] relates to OT-I CD8^+ T-lymphocytes. The assay can be described thus: Homeostatic proliferation after co-transfer into sub-lethally irradiated hosts. It is filed as in vivo, mouse. The protocol: CD45.1.1 or CD45.1.2 OT-I CD8^+ T-lymphocytes were activated with 1000 nM SIINFEKL peptide and cultured with or without 300 μM S-2HG-octyl ester for 9 days. Cells from each group were mixed 1:1 and labelled with CFSE prior to transfer into sub-lethally irradiated CD45.2.2 mice. 7 days later, mice were sacrificed and the presence of CD451.1 and CD45.1.2 CD8^+ T-lymphocytes was enumerated in spleen by flow cytometry. Representative flow cytometry plots are shown for each pool before and after adoptive transfer. Flow cytometry plots show viable CD8^+ cells.
Total splenocytes from OT-I CD45.1/CD45.1 and OT-I CD45.1/CD45.2 mice were activated with 1000 nM SIINFEKL peptide in the presence of IL-2 and vehicle or 300 μM S-2HG-octyl ester. After 48 h CD8^+ T-cells were purified by negative selection and cultured for a further 7 days in the presence of IL-2 and vehicle or 300 μM S-2HG-octyl ester. Vehicle and S-2HG-treated cells were then mixed 1:1 and labelled with CFSE, followed by intravenous injection into sub-lethally irradiated CD45.2/CD45.2 hosts. 7 days later, spleens were harvested and analysed by flow cytometry. Absolute numbers of cells were determined with the use of counting beads (CountBright, Life Technologies)

Assay [4] has as its system OT-I CD8^+ T-lymphocytes. The assay can be described thus: In vivo persistence experiments. Details: species or system mouse. How it is done: Flow cytomotery plots are gated on live cells.
Total splenocytes from OT-I CD45.1^+ mice were activated with 1000 nM SIINFEKL peptide in the presence of IL-2 and vehicle or 300 μM S-2HG-octyl ester. After 48 h CD8^+ T-cells were purified by negative selection and cultured for 7 days in the presence of IL-2 and vehicle or 300 μM S-2HG-octyl ester. 1 million CD45.1^+CD8^+ cells were then injected intravenously into C57BL/6J wild type CD45.2.2 host mice. 30 days later, host mice were sacrificed to assess the persistence of transferred cells in the spleen. Absolute numbers of cells were determined with the use of counting beads (CountBright, Life Technologies).

In assay [5] the test system is OT-I CD8^+ T-lymphocytes. The assay can be described thus: Recall experiments with co-transferred cells. It is filed as in vivo, mouse. The conditions noted are these: cells pre-treated with 300 μM S-2HG-octyl ester; spleen, lymphnodes, liver, day 37 post transfer. How it is done: CD45.1.1 or CD45.1.2 OT-I CD8^+ T-lymphocytes were activated with 1000 nM SIINFEKL peptide and cultured with or without 300 μM S-2HG-octyl ester for 9 days. Cells from each group were mixed 1:1 prior to transfer into CD45.2.2 mice. 30 days later, these recipient mice were vaccinated with SIINFEKL-loaded dendritic cells to induce recall and the presence of CD451.1 and CD45.1.2 CD8^+ T-lymphocytes was enumerated in spleen, lymphnodes and liver by flow cytometry 7 days later.

Another assay concerns EG7-OVA tumours. The assay can be described thus: Adoptive cellular immunotherapy experiments. It is filed as in vivo, mouse. The conditions noted are these: i.v. The protocol: Mice were lymphodepleted with sub-lethal irradiation before receivening intravenous injection of OT-I CD8^+ T-lymphocytes. Error bars denote s.e.m. *p<0.05, ns=non-significant.
Error bars denote s.e.m. *p<0.05, ns=non-significant.
For adoptive cell therapy experiments, OT-I CD8^+ T-lymphocytes were activated with 1000 nM SIINFEKL peptide in the presence of IL-2 and vehicle or 300 μM S-2HG-octyl ester. After 48 h CD8^+ T-cells were purified by negative selection and cultured for a further 7 days in the presence of IL-2 and vehicle or 300 μM S-2HG-octyl ester. OT-I cells were transferred intravenously into tumour-bearing C57BL/6J lymphodepleted or lymphoreplete mice with 9-12 day established EG7-OVA tumours.

Assay [6] deals with CD8^+ T-lymphocytes. The assay can be described thus: Flow cytometry of CD44 and CD62L surface expression. It is filed as cell-based, mouse. Conditions: 0.5 mM, with IL-2; antigen specific (OT-I) and polyclonal CD8+ T-lymphocytes. The source says:
Data are representative of n=4 individual mice.
Data are representative of 3 mice per genotype.
Data are representative of 2 mice per genotype.
Data are representative of n=3 individual mice.
Cells were stained and acquired on a Fortessa (BD Biosciences). […] For staining of nuclear-located marker Eomes, the Transcription Factor Staining Buffer Set (eBioscience) was used, according to the manufacturer's instructions. For staining of intracellular cytokines, OT-I cells were re-stimulated with […] peptide for 4 h with GolgiStop solution (BD). For ^1H-NMR experiments, CD8^+ T-lymphocytes were sorted from total splenocytes by immunostaining with anti-mouse CD8-AF647 (Biolegend) on a MoFlo (Beckman Coulter). Cells were then activated and cultured as described above.

Assay [7] has as its system OT-I CD8^+CD45.1^+ T-lymphocytes. Put plainly: In vivo memory recall experiment (adoptive transfer, vaccination). The arrangement: species or system mouse. The conditions noted are these: 0.5 mM, 7 days with IL-2 (FIGS. 13, 16, 17). The protocol:
FIGS. 13B and 13C show representative flow cytometry plots of (B) CD8^+CD45.1^+ (C) or Kb/SIINFEKL Pentamer^+CD45.1^+ T-lymphocytes, in the spleens of vaccinated litter mate CD45.2 mice, 37 days after adoptive transfer of SIINFEKL-activated OT-I CD8^+CD45.1^+ T-lymphocytes, expanded with 0.5 mM S-2HG-octyl ester, 0.5 mM R-2HG-octyl ester or vehicle in the presence of IL-2 for 7 days. FIGS. 13D-F show (13D) the number of recovered CD45.1^+CD8^+ T-lymphocytes per spleen and (13E) % CD45.1^+ cells of the total CD8^+ population in each spleen or (13F) number of recovered Kb/SIINFEKL Pentamer^+CD45.1^+ T-lymphocytes per spleen 7 days after vaccination (37 days after the CD8+ T-cells were transferred into the mice). n=6 mice per group and error bars denote the s.e.m.
Total splenocytes from OT-1 CD45.1^+ mice were activated with 1000 nM SIINFEKL peptide in the presence of IL-2 and vehicle, 0.5 mM S-2HG-octyl ester or 0.5 mM R-2HG-octyl ester for 7 days. 1 million CD45^+CD8^+ cells were then injected intravenously into C57/B6 wild type CD45.2^+ host mice. 30 days later, host mice were vaccinated i.p. with SIINFEKL-loaded dendritic cells. 7 days later, spleens were harvested from host mice and the presence of CD45.1^+CD8^+ and Kb/SIINFEKL Pentamer+cells was determined by flow cytometry. Absolute numbers of cells were determined with the use of counting beads (CountBright, Life Technologies). Dendritic cells were prepared from bone marrow extracted from wild type C57/B6 mice. Bone marrow derived cells were cultured in non-TC treated petri dishes in RPMI-1640 medium containing 2 mM glutamine, 10% FBS, 25 mM HEPES, pH 7.2, 1% penicillin-streptomycin, 55 μM […] supplemented 20 ng/ml mGM-CSF (R&D Systems). After 8 days of culture, dendritic cells were activated with 1 μg/ml LPS (Sigma) for 24 h. The maturation of dendritic cells was confirmed by flow cytometry using the following markers: MHC class II-APC, CD11b-AF488, CD11c-AF488 and CD86-PE/Cy7 (Biolegend). Mature dendritic cells were then loaded with 2 μM SIINFEKL peptide at 37° C. for 1 hour. After peptide loading, dendritic cells were detached with 3 mM EDTA in PBS for 5-10 min at 37° C. and washed with PBS. For vaccination, 1 million peptide-loaded dendritic cells were injected i.p. per mouse in 100 μl PBS.

[8] abbreviates: 500 μM S-2HG-octyl ester, HIF-1α-independent.

Molecules are shown by their SMILES.

Regarding `O=C(O)CC[C@H](O)C(=O)O` [S-2HG, S-2-hydroxyglutarate], the “expression of pluripotency associated genes (Oct3/4, Sox2, Nanog, Klf4)” value in the assay with CD8^+ T-lymphocytes [1] is given as “induces the expression”. For the same compound, the “proportion of KLRG1^High cells” value with CD8^+ T-lymphocytes [2] (300 μM S-2HG-octyl ester, 21% oxygen, empty or L2hgdh-FLAG vector) is listed as “decreased”. Moreover, in the assay with CD8^+ T-lymphocytes [2] (500 μM S-2HG-octyl ester), the PD-1 expression result is given as “less”. Moreover, in the assay with CD8^+ T-lymphocytes [2] (setting [8]), the 41BB expression result is “more”, the CD44 expression entry is recorded as “more”, the CD127 expression entry is “more” and the “Eomes expression (flow cytometry)” value is listed as “more”. For the same compound, the “homeostatic proliferation of transferred cells” value with OT-I CD8^+ T-lymphocytes [3] (cells pre-treated with 300 μM S-2HG-octyl ester 9 days, 7 days after transfer, spleen) was “greater homeostatic proliferation”. Further, the “transferred cells dividing >5 times in vivo” value with OT-I CD8^+ T-lymphocytes [3] (cells pre-treated with 300 μM S-2HG-octyl ester, CFSE, day 7) is recorded as “more cells dividing >5 times”. The “persistence of adoptively transferred cells” value with OT-I CD8^+ T-lymphocytes [4] (cells pre-treated with 300 μM S-2HG-octyl ester, spleen, 30 days after transfer) is listed as “dramatically enhanced persistence”. For the same compound, in the assay on OT-I CD8^+ T-lymphocytes [4] (day 30 after transfer), the “Bcl-2 level of recovered cells relative to naïve cells” value is listed as “elevated”, the “CD44 level of recovered cells relative to naïve cells” value is given as “elevated” and the “CD127 level of recovered cells relative to naïve cells” value was “elevated”. Besides, the “recall response to vaccination with SIINFEKL-loaded dendritic cells” value in the assay on OT-I CD8^+ T-lymphocytes [5] is “superior recall response”. Further, the “control of tumour growth in lymphodepleted tumour-bearing mice” value in the assay with EG7-OVA tumours (0.7×10^6 OT-I cells cultured with S-2HG-octyl ester, 12 day tumours) was “more proficient at controlling tumour growth”. Further, the “control of tumour growth in lymphoreplete tumour-bearing mice” value in the assay with EG7-OVA tumours (1.0×10^6 OT-I cells cultured with S-2HG-octyl ester, 9 day tumours) is listed as “more proficient at controlling tumour growth”.

As for `COC(=O)CCC(=O)OC` [dimethylsuccinate], the “formation of a CD62L^high CD44^high population” value with CD8^+ T-lymphocytes [6] is “induce the formation”. In addition, in assay [7], the “formation of memory cells after in vitro treatment of CD8+ T-cells” value is “induces the formation”.

Regarding `CCCCCCCCOC(=O)C(=O)CCC(=O)O` [α-ketoglutarate octyl ester, reference compound], the “formation of a CD62L^high CD44^high population” value with CD8^+ T-lymphocytes [6] is on record as “not observed”. Besides, the “formation of memory cells after in vitro treatment of CD8+ T-cells” value in assay [7] was “does not induce the formation”; in assay [7] (listed as alpha ketoglutarate) it was “does not provide good activity”.
